The values that follow come from patent US10583084B2, “Liposomal formulations for delivery of nucleic acids” (RAMOT AT TEL-AVIV UNIVERSITY LTD., priority 2014, dated 2020).

Each structure is given as a SMILES string.

A short description of series [1]: lipid pKa of cationic lipids.

One may read the pKa as the pH at which an ionisable group is half protonated. High values mean a group that holds its proton tightly, low ones a group that gives up its proton readily. `CCCCC/C=C\C/C=C\CCCCCCCCC1(CCCCCCCC/C=C\C/C=C\CCCCC)OCC(CCN(C)C)O1` (centres unmarked) [DLin-KC2-DMA, 2,2-Dilinoleyl-4-(2-dimethylaminoethyl)-[1,3]-dioxolane] came in with a pKa in “physchem” of roughly 6.7.
With `CCCCC/C=C\C/C=C\CCCCCCCCOCC(CN(C)C)OCCCCCCCC/C=C\C/C=C\CCCCC` (centres unmarked) [DLinDMA], the “lipid pKa” value in series [1] was 6.8.
